# Experimental data reported in US20260256792A1, “TREATMENT OF CHRONIC SPONTANEOUS URTICARIA BY ADMINISTERING (R)-2-[3-[4-AMINO-3-(2-FLUORO-4-PHENOXY-PHENYL)PYRAZOLO[3,4-D]PYRIMIDIN-1-YL]PIPERIDINE-1-CARBONYL]-4-METHYL-4-[4-(OXETAN-3-YL)PIPERAZIN-1-YL]PENT-2-ENENITRILE” (priority 2023, published 2026).
# Test system: moderate-to-severe chronic spontaneous urticaria (CSU)
# Experiment: Phase 2 CSU study: itch severity score over 7 days (ISS7)
# Type: in vivo, human
# Conditions: for Non-responder n (%) (ISS7 reduction of 5 points or more) / OR for rilzabrutinib vs. placebo (ISS7 reduction of 5 points or more) / Responder n (%) (ISS7 reduction of 5 points or more) / Imputed non-responder n (%) (ISS7 reduction of 5 points or more) / RRD (%) for rilzabrutinib vs. placebo (ISS7 reduction of 5 points or more): Omalizumab-Naïve Population; for ISS7 Post-baseline Mean (SD): Omalizumab-Naïve, outlier removed
# Excerpt: The study comprises a 12 week, randomized, double-blind, placebo-controlled, multi-center, dose-ranging efficacy and safety phase, followed by a 40 week open label extension (OLE) phase (see FIG. 1). The study consists of three phases and an optional OLE phase. […] Clinically, CSU is characterized by the spontaneous and recurrent appearance of pruritic hives. The proposed primary endpoints were the UAS7 at Week 12 in EU and EU reference countries and the ISS7 in the US. Regardless of where a participant was from, all assessments were the same. The UAS7 score is a composite score containing both the HSS7 and the ISS7. This allowed a global assessment of the two key components of urticaria: hives and itch. […] The UAS is a validated PRO measure. […] The daily UAS scores range from 0 to 6 point/day. […] Patients were to complete the UAS using the e-diary. […] The following secondary endpoints were to be analyzed using the same approach as for the primary endpoint: • Change from baseline in UAS7 at Week 4 • Change from baseline in UAS7 at Week 12 (for US and US reference countries) • Change from baseline in ISS7 at Week 12 (except US and US reference countries) • Change from baseline in HSS7 at Week 12
smiles,measurement,setting,value
"CC(C)(C=C(C#N)C(=O)N1CCC[C@@H](n2nc(-c3ccc(Oc4ccccc4)cc3F)c3c(N)ncnc32)C1)N1CCN(C2COC2)CC1 [rilzabrutinib, (R)-2-[3-[4-amino-3-(2-fluoro-4-phenoxy-phenyl)pyrazolo[3,4-d]pyrimidin-1-yl]piperidine-1-carbonyl]-4-methyl-4-[4-(oxetan-3-yl)piperazin-1-yl]pent-2-enenitrile]",Non-responder n (%) (ISS7 reduction of 5 points or more),"400 mg QPM, Week 10",14 (37.8) n (%)
same,OR for rilzabrutinib vs. placebo (ISS7 reduction of 5 points or more),"400 mg QPM, Week 10",1.614
same,Responder n (%) (ISS7 reduction of 5 points or more),"400 mg QPM, Week 10",23 (62.2) n (%)
same,Imputed non-responder n (%) (ISS7 reduction of 5 points or more),"400 mg QPM, Week 11",7 (18.9) n (%)
same,Non-responder n (%) (ISS7 reduction of 5 points or more),"400 mg QPM, Week 11",17 (45.9) n (%)
same,OR for rilzabrutinib vs. placebo (ISS7 reduction of 5 points or more),"400 mg QPM, Week 11",0.932
same,RRD (%) for rilzabrutinib vs. placebo (ISS7 reduction of 5 points or more),"400 mg QPM, Week 11",−1.7%
same,Responder n (%) (ISS7 reduction of 5 points or more),"400 mg QPM, Week 11",20 (54.1) n (%)
same,Imputed non-responder n (%) (ISS7 reduction of 5 points or more),"400 mg QPM, Week 12",10 (27.0) n (%)
same,Non-responder n (%) (ISS7 reduction of 5 points or more),"400 mg QPM, Week 12",21 (56.8) n (%)
same,OR for rilzabrutinib vs. placebo (ISS7 reduction of 5 points or more),"400 mg QPM, Week 12",0.851
same,RRD (%) for rilzabrutinib vs. placebo (ISS7 reduction of 5 points or more),"400 mg QPM, Week 12",−4.2%
same,Responder n (%) (ISS7 reduction of 5 points or more),"400 mg QPM, Week 12",16 (43.2) n (%)
same,Imputed non-responder n (%) (ISS7 reduction of 5 points or more),"400 mg TID, Week 1",0 n (%)
same,Non-responder n (%) (ISS7 reduction of 5 points or more),"400 mg TID, Week 1",13 (37.1) n (%)
same,OR for rilzabrutinib vs. placebo (ISS7 reduction of 5 points or more),"400 mg TID, Week 1",5.851
same,RRD (%) for rilzabrutinib vs. placebo (ISS7 reduction of 5 points or more),"400 mg TID, Week 1",40.1%
same,Responder n (%) (ISS7 reduction of 5 points or more),"400 mg TID, Week 1",22 (62.9) n (%)
same,Imputed non-responder n (%) (ISS7 reduction of 5 points or more),"400 mg TID, Week 2",0 n (%)
same,Non-responder n (%) (ISS7 reduction of 5 points or more),"400 mg TID, Week 2",12 (34.3) n (%)
same,OR for rilzabrutinib vs. placebo (ISS7 reduction of 5 points or more),"400 mg TID, Week 2",4.876
same,RRD (%) for rilzabrutinib vs. placebo (ISS7 reduction of 5 points or more),"400 mg TID, Week 2",36.4%
same,Responder n (%) (ISS7 reduction of 5 points or more),"400 mg TID, Week 2",23 (65.7) n (%)
same,Imputed non-responder n (%) (ISS7 reduction of 5 points or more),"400 mg TID, Week 3",0 n (%)
same,Non-responder n (%) (ISS7 reduction of 5 points or more),"400 mg TID, Week 3",12 (34.3) n (%)
same,OR for rilzabrutinib vs. placebo (ISS7 reduction of 5 points or more),"400 mg TID, Week 3",3.637
same,RRD (%) for rilzabrutinib vs. placebo (ISS7 reduction of 5 points or more),"400 mg TID, Week 3",34.3%
same,Responder n (%) (ISS7 reduction of 5 points or more),"400 mg TID, Week 3",23 (65.7) n (%)
same,Imputed non-responder n (%) (ISS7 reduction of 5 points or more),"400 mg TID, Week 4",3 (8.6) n (%)
same,Non-responder n (%) (ISS7 reduction of 5 points or more),"400 mg TID, Week 4",11 (31.4) n (%)
same,OR for rilzabrutinib vs. placebo (ISS7 reduction of 5 points or more),"400 mg TID, Week 4",2.777
same,RRD (%) for rilzabrutinib vs. placebo (ISS7 reduction of 5 points or more),"400 mg TID, Week 4",25.1%
same,Responder n (%) (ISS7 reduction of 5 points or more),"400 mg TID, Week 4",24 (68.6) n (%)
same,Imputed non-responder n (%) (ISS7 reduction of 5 points or more),"400 mg TID, Week 5",2 (5.7) n (%)
same,Non-responder n (%) (ISS7 reduction of 5 points or more),"400 mg TID, Week 5",10 (28.6) n (%)
same,OR for rilzabrutinib vs. placebo (ISS7 reduction of 5 points or more),"400 mg TID, Week 5",2.535
same,RRD (%) for rilzabrutinib vs. placebo (ISS7 reduction of 5 points or more),"400 mg TID, Week 5",22.7%
same,Responder n (%) (ISS7 reduction of 5 points or more),"400 mg TID, Week 5",25 (71.4) n (%)
same,Imputed non-responder n (%) (ISS7 reduction of 5 points or more),"400 mg TID, Week 6",4 (11.4) n (%)
same,Non-responder n (%) (ISS7 reduction of 5 points or more),"400 mg TID, Week 6",15 (42.9) n (%)
same,OR for rilzabrutinib vs. placebo (ISS7 reduction of 5 points or more),"400 mg TID, Week 6",1.563
same,Responder n (%) (ISS7 reduction of 5 points or more),"400 mg TID, Week 6",20 (57.1) n (%)
same,Imputed non-responder n (%) (ISS7 reduction of 5 points or more),"400 mg TID, Week 7",5 (14.3) n (%)
same,Non-responder n (%) (ISS7 reduction of 5 points or more),"400 mg TID, Week 7",11 (31.4) n (%)
same,OR for rilzabrutinib vs. placebo (ISS7 reduction of 5 points or more),"400 mg TID, Week 7",2.715
same,RRD (%) for rilzabrutinib vs. placebo (ISS7 reduction of 5 points or more),"400 mg TID, Week 7",23.5%
same,Responder n (%) (ISS7 reduction of 5 points or more),"400 mg TID, Week 7",24 (68.6) n (%)
same,Imputed non-responder n (%) (ISS7 reduction of 5 points or more),"400 mg TID, Week 8",7 (20.0) n (%)
same,Non-responder n (%) (ISS7 reduction of 5 points or more),"400 mg TID, Week 8",12 (34.3) n (%)
same,OR for rilzabrutinib vs. placebo (ISS7 reduction of 5 points or more),"400 mg TID, Week 8",1.891
same,RRD (%) for rilzabrutinib vs. placebo (ISS7 reduction of 5 points or more),"400 mg TID, Week 8",16.1%
same,Responder n (%) (ISS7 reduction of 5 points or more),"400 mg TID, Week 8",23 (65.7) n (%)
same,Imputed non-responder n (%) (ISS7 reduction of 5 points or more),"400 mg TID, Week 9",6 (17.1) n (%)
same,Non-responder n (%) (ISS7 reduction of 5 points or more),"400 mg TID, Week 9",11 (31.4) n (%)
same,OR for rilzabrutinib vs. placebo (ISS7 reduction of 5 points or more),"400 mg TID, Week 9",2.956
same,RRD (%) for rilzabrutinib vs. placebo (ISS7 reduction of 5 points or more),"400 mg TID, Week 9",25.1%
same,Responder n (%) (ISS7 reduction of 5 points or more),"400 mg TID, Week 9",24 (68.6) n (%)
same,Imputed non-responder n (%) (ISS7 reduction of 5 points or more),"400 mg TID, Week 10",5 (14.3) n (%)
same,Non-responder n (%) (ISS7 reduction of 5 points or more),"400 mg TID, Week 10",12 (34.3) n (%)
same,OR for rilzabrutinib vs. placebo (ISS7 reduction of 5 points or more),"400 mg TID, Week 10",1.910
same,RRD (%) for rilzabrutinib vs. placebo (ISS7 reduction of 5 points or more),"400 mg TID, Week 10",15.5%
same,Responder n (%) (ISS7 reduction of 5 points or more),"400 mg TID, Week 10",23 (65.7) n (%)
same,Imputed non-responder n (%) (ISS7 reduction of 5 points or more),"400 mg TID, Week 11",4 (11.4) n (%)
same,Non-responder n (%) (ISS7 reduction of 5 points or more),"400 mg TID, Week 11",10 (28.6) n (%)
same,OR for rilzabrutinib vs. placebo (ISS7 reduction of 5 points or more),"400 mg TID, Week 11",1.951
same,RRD (%) for rilzabrutinib vs. placebo (ISS7 reduction of 5 points or more),"400 mg TID, Week 11",15.5%
same,Responder n (%) (ISS7 reduction of 5 points or more),"400 mg TID, Week 11",25 (71.4) n (%)
same,Imputed non-responder n (%) (ISS7 reduction of 5 points or more),"400 mg TID, Week 12",8 (22.9) n (%)
same,Non-responder n (%) (ISS7 reduction of 5 points or more),"400 mg TID, Week 12",15 (42.9) n (%)
same,OR for rilzabrutinib vs. placebo (ISS7 reduction of 5 points or more),"400 mg TID, Week 12",1.469
same,Responder n (%) (ISS7 reduction of 5 points or more),"400 mg TID, Week 12",20 (57.1) n (%)
same,ISS7 Post-baseline Mean (SD),"400 mg BID, Week 2",10.32 (5.64)
same,ISS7 Post-baseline Mean (SD),"400 mg BID, Week 3",9.16 (6.09)
same,ISS7 Post-baseline Mean (SD),"400 mg BID, Week 4",8.32 (6.02)
same,ISS7 Post-baseline Mean (SD),"400 mg BID, Week 5",8.88 (6.81)
same,ISS7 Post-baseline Mean (SD),"400 mg BID, Week 6",8.85 (6.40)
same,ISS7 Post-baseline Mean (SD),"400 mg BID, Week 7",8.21 (6.16)
same,ISS7 Post-baseline Mean (SD),"400 mg BID, Week 8",7.33 (6.55)
same,ISS7 Post-baseline Mean (SD),"400 mg BID, Week 9",7.63 (7.11)
same,ISS7 Post-baseline Mean (SD),"400 mg BID, Week 10",8.17 (7.29)
same,ISS7 Post-baseline Mean (SD),"400 mg BID, Week 11",7.93 (6.94)
same,ISS7 Post-baseline Mean (SD),"400 mg BID, Week 12",8.09 (6.95)
same,ISS7 Post-baseline Mean (SD),"400 mg QPM, Week 1",13.08 (4.52)
same,ISS7 Post-baseline Mean (SD),"400 mg QPM, Week 3",11.60 (4.68)
same,ISS7 Post-baseline Mean (SD),"400 mg QPM, Week 4",11.39 (4.79)
same,ISS7 Post-baseline Mean (SD),"400 mg QPM, Week 5",11.00 (4.68)
same,ISS7 Post-baseline Mean (SD),"400 mg QPM, Week 6",10.27 (5.26)
same,ISS7 Post-baseline Mean (SD),"400 mg QPM, Week 7",10.68 (5.34)
same,ISS7 Post-baseline Mean (SD),"400 mg QPM, Week 8",10.72 (5.26)
same,ISS7 Post-baseline Mean (SD),"400 mg QPM, Week 10",10.43 (5.30)
same,ISS7 Post-baseline Mean (SD),"400 mg QPM, Week 11",11.03 (5.55)
